In article PMC11845477, “Exploring the principles behind antibiotics with limited resistance” (Nature Communications, 2025):
Where two headings read alike, the source gives them in different places. Where a SMILES comes first, the peptide text is derived from it. Bridges are numbered along the chain shown (N, C = ends). [ ]: non-standard residue; d: D form. The star is where a group is joined. X2 = CC[C@H](C)CCCCC(=O)*; Dab = NCC[C@H](N)C(=O)O

Assays:
[1] = test system: K. pneumoniae ATCC 10031 (SEN) and K. pneumoniae ATCC 700603 (MDR); assay: Frequency-of-resistance (FoR) assay, relative MIC of mutants; format: cell-based, Klebsiella pneumoniae; conditions: for MIC: Klebsiella pneumoniae
Method: The susceptibility of antibiotics to resistance development was evaluated in two strains of each bacterial species: a multidrug-resistant strain and an antibiotic-sensitive strain of Escherichia coli, Klebsiella pneumoniae, Acinetobacter baumannii, and Pseudomonas aeruginosa. To explore first-step resistance, we previously used a standard protocol for spontaneous frequency-of-resistance analysis (FoR assay) at multiple concentrations of each antibiotic[10],[28],[31]–[33]. […] For all other combinations, approximately 10^10 bacterial cells were exposed to one of each antibiotic on agar plates for two days at concentrations where the given strain is susceptible. We examined resistance levels by contrasting the minimum inhibitory concentration (MICs) of the mutated strains to the original wild-type bacterial strain (i.e., relative MIC).
To estimate the frequency of spontaneous mutations that confer resistance in a microbial population, we conducted a frequency of resistance (FoR) assay following established protocols[10],[31]–[33]. […] Prior to plating, bacteria were grown overnight in MHB medium at 37 °C and 250 RPM, then centrifuged and washed in MHB. All experiments were performed in triplicate, and plates were incubated at 37 °C for 48 hours. Total colony-forming units (CFUs) were determined by plating appropriate dilutions onto antibiotic-free MHB agar. Resistance frequencies were calculated by dividing the number of resistant colonies by the initial viable cell count. From the plates with the highest antibiotic concentration, ten colonies were selected for MIC determination and whole-genome sequencing.
A robotic liquid handling system was used to automatically prepare a 11 to 16-step serial dilution in 384-well microtiter plates (Greiner). A final concentration of 5 × 10^5 bacterial cells per mL were inoculated into each well containing 60 µL MHB medium. Bacterial cultures were incubated at 37 °C with continuous shaking (Infors shaker, 900 rpm with 3 mm throw) for 18 hours (2 replicates from each). Cell growth was monitored by measuring the optical density (OD600 values, using Biotek Synergy microplate reader). MIC was defined as the antibiotic concentration of complete growth inhibition (i.e., OD600 < 0.05). Relative MIC was calculated as follows:1 relativeMIC=MICevolved/MICancestor […]
Supplementary Figure 3. Resistance levels following the frequency of resistance assay across bacterial strains. The level of resistance was measured as the fold change in relative MIC between evolved and ancestral strains. Data are grouped by bacterial strain (A. baumannii (AB), E. coli (EC), K. pneumoniae (KP), and P. aeruginosa (PA)) and categorized as either multidrug-resistant (MDR) or sensitive (SEN). Each data point represents a laboratory evolved line, and boxplots show the median, first and third quartiles, with whiskers indicating the 5th and 95th percentiles. […]
analysis was performed using two-sided Dunn’s post-hoc test with Benjamini-Hochberg correction for multiple comparisons (**/ * indicates p < 0.01/ 0.05). For detailed information on antibiotic and bacterial species, see Supplementary Table 1. For mode of action groups, refer to Table 1. Source data are provided as a Source Data file.

[2] = test system: E. coli BW25113-ΔacrB; assay: AcrAB-TolC efflux deficiency screen, relative MIC; format: cell-based, Escherichia coli; conditions: ΔacrB vs wild-type
Method: (§1) Fig. 6 The impact of AcrAB-TolC activity on antibiotic susceptibility. E. coli strains with AcrAB-TolC depletion (BW25113-ΔacrB) and overexpression (BW25113: pUCacrAB) were treated with various antibiotics, and the level of resistance was determined as minimum inhibitory concentration (MIC) relative to a wild-type strain, presented on a logarithmic scale (log2). Each bar represents the mean resistance level (susceptibility, i.e., level of resistance < 0; and resistance, i.e., level of resistance > 0) to antibiotics induced by acrAB overexpression (blue bars; E. coli with a multicopy plasmid of the acrAB genes (pUCacrAB)) and acrB deletion (red bars; mutant E. coli with acrB gene deletion (ΔacrB)) compared to the wild-type. Data are presented as mean values of 3 biological replicates ± SD. […] Detailed information on antibiotic and bacterial strain abbreviations is provided in Supplementary Data 1. Source data are provided as a Source Data file. For information on mode of action groups, refer to Table 1.
(§2) For the efflux deficiency screen, the ΔacrB mutant of E. coli K12 BW25113[86] and its equivalent wild-type control strain with intact gene were utilized. In contrast, BW25113 carrying a multicopy acrAB plasmid (pUCacrAB)[87] and its control strain harboring an empty pUC118 plasmid were used to overexpress the acrAB efflux system. According to established protocols via P1 transduction, the suitable acrB deletion mutant (ΔacrB BW25113) was created, while the pUCacrAB plasmid was kindly provided by Kunihiko Nishino and Akihito Yamaguchi (Osaka University, Osaka, Japan). In a prior study, both strains were employed. Since the copy number of the plasmid carrying the efflux pump is controlled by native promoters, external induction is unnecessary.
(§3) Antibiotic susceptibilities of these strains were evaluated using a modified version of the standard broth dilution method. In 96-well microtiter plates containing fresh MHB medium, or supplemented MS medium in case of SCH79797, ten-step serial dilutions of an antibiotic from a stock solution were made (2 wells per antibiotic concentration per strain). The two wells contained only supplemented media without any antibiotics […]. Strains were incubated overnight at 37 °C with continuous agitation. Additionally, plasmid containing strains were grown in the presence of 100 µg/mL ampicillin. The culture was diluted to yield a cell suspension with 5 ×10^5 cells/mL and then inoculated into the wells of the microtiter plate. To determine the medium’s background OD value, the first column of the 96-well plate contained solely MHB without inoculum. Prior to the measurement, the plates were incubated at 37 °C with continuous shaking at 900 rpm with 3 mm throw. OD600 values were determined in a microplate reader after 18 hours of incubation (Biotek Synergy 2). The minimum inhibitory concentration (MIC) was determined as the lowest concentration of antibiotic at which the OD600 values were less than 0.05 after subtracting the background value. The log2 of the relative MIC was computed using the following equation:2 log2relativeMICpUCacrAB=MICpUCacrAB/MICpUC118 3 log2relativeMICΔacrB=MICΔacrB/MICwt

[3] = test system: E. coli BW25113: pUCacrAB; assay: AcrAB-TolC efflux overexpression screen, relative MIC; format: cell-based, Escherichia coli; conditions: pUCacrAB vs empty pUC118 control
Method: as §1, §2, §3

[4] = Klebsiella pneumoniae ATCC 10031 (KP-SEN), evolved line 1 versus ancestor
[5] = Klebsiella pneumoniae ATCC 10031 (KP-SEN), evolved line 2 versus ancestor
[6] = Klebsiella pneumoniae ATCC 10031 (KP-SEN), evolved line 3 versus ancestor
[7] = Klebsiella pneumoniae ATCC 700603 (KP-MDR), evolved line 1 versus ancestor
[8] = Klebsiella pneumoniae ATCC 700603 (KP-MDR), evolved line 2 versus ancestor
[9] = Klebsiella pneumoniae ATCC 700603 (KP-MDR), evolved line 3 versus ancestor
[10] = read-out: MIC of evolved line, Klebsiella pneumoniae ATCC 10031 (KP-SEN), evolved line 1
[11] = read-out: MIC of evolved line, Klebsiella pneumoniae ATCC 10031 (KP-SEN), evolved line 2
[12] = read-out: MIC of evolved line, Klebsiella pneumoniae ATCC 700603 (KP-MDR), evolved line 1
[13] = read-out: MIC of evolved line, Klebsiella pneumoniae ATCC 700603 (KP-MDR), evolved line 2
[14] = read-out: MIC of evolved line, Klebsiella pneumoniae ATCC 10031 (KP-SEN), evolved line 3
[15] = read-out: MIC of evolved line, Klebsiella pneumoniae ATCC 700603 (KP-MDR), evolved line 3
[16] = Klebsiella pneumoniae ATCC 10031 (KP-SEN), evolved line 1
[17] = Klebsiella pneumoniae ATCC 10031 (KP-SEN), evolved line 2
[18] = Klebsiella pneumoniae ATCC 10031 (KP-SEN), evolved line 3

Row | Molecule | Relative MIC [1, 4] | Relative MIC [1, 5] | Relative MIC [1, 6] | MIC [1, 10] | MIC [1, 11] | MIC [1, 12] | MIC [1, 13] | Relative MIC (log2) ([2]; replicate 1) | Relative MIC (log2) ([2]; replicate 2) | Relative MIC (log2) ([2]; replicate 3) | Relative MIC (log2) ([3]; replicate 1) | Relative MIC (log2) ([3]; replicate 2) | Relative MIC (log2) ([3]; replicate 3) | MIC [1, 14] | MIC [1, 15] | further results
1 | CN[C@@H]1[C@@H](O[C@H]2O[C@H](CO)[C@@H](N)[C@H](O)[C@H]2O)OC2C[C@@H](N)[C@@H](O[C@H]3[C@H](O)[C@@H](O)[C@H](N)C[C@@H]3N)OC2[C@@H]1O (some centres unmarked) [Apramycin] | 8 | 8 | 2 | 16 mg/L | 16 mg/L | 8 mg/L | 8 mg/L | 1 | 1 | 1 | 0 | 0 | 0 |  |  | Relative MIC [1, 7]: 2; Relative MIC [1, 8]: 2; Relative MIC [1, 9]: 1
2 | Nc1nc(-n2cc(C(=O)O)c(=O)c3cc(F)c(N4CC(O)C4)c(Cl)c32)c(F)cc1F [Delafloxacin] | 32 | 64 | 32 | 0.0625 mg/L | 0.125 mg/L | 4 mg/L | 4 mg/L | -4 | -4 | -4 | 2 | 2 | 2 | 0.0625 mg/L | 4 mg/L | Relative MIC [1, 7]: 4; Relative MIC [1, 8]: 4; Relative MIC [1, 9]: 4
3 | C[C@H]1c2cccc(O)c2C(=O)C2=C(O)[C@]3(O)C(=O)C(C(N)=O)=C(O)[C@@H](N(C)C)[C@@H]3[C@@H](O)[C@@H]21 [Doxycycline] | 4 | 4 | 2 | 1 mg/L | 1 mg/L |  |  | -2.34 | -2.34 | -2.34 | 0 | 0 | 0 | 0.5 mg/L |  | 
4 | C[C@@H](O)[C@H]1C(=O)N2C(C(=O)O)=C(S[C@@H]3CN[C@H](C(=O)N(C)C)C3)[C@H](C)[C@H]12 [Meropenem] |  |  |  | 0.0156 mg/L | 0.0156 mg/L | 2 mg/L | 0.0625 mg/L |  |  |  |  |  |  | 0.0156 mg/L | 1 mg/L | 
5 | COc1c(N2C[C@@H]3CCCN[C@@H]3C2)c(F)cc2c(=O)c(C(=O)O)cn(C3CC3)c12 [Moxifloxacin] |  |  |  | 0.25 mg/L |  | 4 mg/L | 4 mg/L |  |  |  |  |  |  |  | 4 mg/L | 
6 | CC[C@H](C)CCCCC(=O)N[C@@H](CCN)C(=O)N[C@H](C(=O)N[C@@H](CCN)C(=O)N[C@H]1CCNC(=O)[C@H]([C@@H](C)O)NC(=O)[C@H](CCN)NC(=O)[C@H](CCN)NC(=O)[C@H](CC(C)C)NC(=O)[C@@H](Cc2ccccc2)NC(=O)[C@H](CCN)NC1=O)[C@@H](C)O [Polymyxin B] (X2-[Dab]T[Dab][Dab][Dab][dF]L[Dab][Dab]T; lactam 4-C (inferred); N-terminus assumed) |  |  |  |  |  |  |  | 0 | 0 | 0 | 0 | 0 | 0 |  |  | 
7 | Tridecaptin M152-P3 |  |  |  |  |  |  |  |  |  |  |  |  |  |  |  | MIC of evolved line [1, 16]: 16 mg/L; MIC of evolved line [1, 17]: 8 mg/L; MIC of evolved line [1, 18]: 16 mg/L
8 | polymyxin-B |  |  |  |  |  |  |  |  |  |  |  |  |  |  |  | MIC of evolved line [1, 16]: 2 mg/L; MIC of evolved line [1, 17]: 2 mg/L; MIC of evolved line [1, 18]: 2 mg/L; MIC of evolved line ([1]; Klebsiella pneumoniae ATCC 700603 (KP-MDR), evolved line 1): 0.5 mg/L; MIC of evolved line ([1]; Klebsiella pneumoniae ATCC 700603 (KP-MDR), evolved line 2): 4 mg/L; MIC of evolved line ([1]; Klebsiella pneumoniae ATCC 700603 (KP-MDR), evolved line 3): 32 mg/L
